This note sets out measurements from ChEMBL document CHEMBL1201862, “PubChem BioAssay data set” (2004).

SMILES strings stand for the structures. Calls of active or inactive are those of the source.

Holding throughout (assay type): functional
One assay deals with T1, Coagulation factor XII (Homo sapiens, UniProt P00748).
T1 sequence (P00748 whole entry): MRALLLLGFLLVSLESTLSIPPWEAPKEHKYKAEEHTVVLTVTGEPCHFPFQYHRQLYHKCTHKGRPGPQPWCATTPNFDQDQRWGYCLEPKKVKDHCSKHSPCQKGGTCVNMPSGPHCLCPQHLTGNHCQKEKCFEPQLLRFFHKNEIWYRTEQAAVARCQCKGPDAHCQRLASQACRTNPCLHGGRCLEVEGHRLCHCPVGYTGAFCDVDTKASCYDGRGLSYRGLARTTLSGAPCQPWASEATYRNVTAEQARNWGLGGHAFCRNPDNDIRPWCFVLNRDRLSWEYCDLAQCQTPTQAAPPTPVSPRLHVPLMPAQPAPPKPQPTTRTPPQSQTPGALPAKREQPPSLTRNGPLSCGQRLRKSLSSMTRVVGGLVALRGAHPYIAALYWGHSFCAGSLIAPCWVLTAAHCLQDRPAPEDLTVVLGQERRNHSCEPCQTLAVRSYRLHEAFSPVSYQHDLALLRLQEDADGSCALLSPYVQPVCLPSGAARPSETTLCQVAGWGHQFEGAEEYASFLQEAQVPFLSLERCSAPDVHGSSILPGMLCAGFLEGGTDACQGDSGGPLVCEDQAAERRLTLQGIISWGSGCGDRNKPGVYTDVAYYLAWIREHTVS
The assay is described as follows: FXIIa inhibitor potency, concentration-response, biochemical (AID 716).

Assay [1] addresses DNA dC->dU-editing enzyme APOBEC-3G (Homo sapiens, UniProt Q9HC16).
Assay [2] addresses DNA dC->dU-editing enzyme APOBEC-3A (Homo sapiens, UniProt P31941). The assay is described as follows: Dose Response confirmation of small molecule APOBEC3A DNA Deaminase Inhibitors via a fluorescence-based single-stranded DNA deaminase assay. [Related pubchem assays (depositor defined):AID493011, AID493024].
Assay [3] addresses G-protein coupled receptor 55 (Homo sapiens, UniProt Q9Y2T6). The assay is described as follows: SAR analysis of selective Agonists of GPR55 using an Image-Based Assay - Set 2. [Related pubchem assays (depositor defined):AID1961, AID1965].
Assay [4] addresses T2, G-protein coupled receptor 35 (Homo sapiens, UniProt Q9HC97). Briefly: SAR analysis of Agonists of the GPR35 Receptor using an Image-Based Assay - Set 3. [Related pubchem assays (depositor defined):AID1961, AID1965].
Assay [5] concerns the target T3, Cannabinoid receptor 1 (Homo sapiens, UniProt P21554). The assay is described as follows: SAR analysis of agonists of the Cannabinoid Receptor 1 using an Image-Based Assay - Set 3. [Related pubchem assays (depositor defined):AID1961, AID1965].
Assay [6] deals with T2, G-protein coupled receptor 35. The assay is described as follows: SAR analysis of Antagonists of the GPR35 Receptor using an Image-Based Assay - Set 4. [Related pubchem assays (depositor defined):[…]].
Assay [7] concerns the target T3, Cannabinoid receptor 1. The assay is described as follows: SAR analysis of antagonists of the Cannabinoid Receptor 1 using an Image-Based Assay - Set 3. [Related pubchem assays (depositor defined):AID1961, AID1965].
Assay [8] deals with T4, Cannabinoid receptor 2 (Homo sapiens, UniProt P34972). The assay is described as follows: SAR analysis of agonists of the Cannabinoid Receptor 2 using an Image-Based Assay - Set 2. [Related pubchem assays (depositor defined):AID1961, AID1965].
Assay [9] addresses T4, Cannabinoid receptor 2. The assay is described as follows: SAR analysis of antagonists of the Cannabinoid Receptor 2 using an Image-Based Assay - Set 2. [Related pubchem assays (depositor defined):AID1961, AID1965].

T2 sequence (Q9HC97 whole entry): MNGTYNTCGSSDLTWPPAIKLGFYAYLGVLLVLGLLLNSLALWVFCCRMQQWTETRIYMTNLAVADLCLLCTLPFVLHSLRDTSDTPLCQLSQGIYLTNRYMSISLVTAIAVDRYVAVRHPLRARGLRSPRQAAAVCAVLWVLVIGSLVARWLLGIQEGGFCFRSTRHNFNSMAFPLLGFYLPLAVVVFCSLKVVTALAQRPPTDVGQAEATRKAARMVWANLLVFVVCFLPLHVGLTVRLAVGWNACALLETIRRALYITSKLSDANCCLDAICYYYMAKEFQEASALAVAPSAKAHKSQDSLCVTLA
T3 sequence (P21554 whole entry): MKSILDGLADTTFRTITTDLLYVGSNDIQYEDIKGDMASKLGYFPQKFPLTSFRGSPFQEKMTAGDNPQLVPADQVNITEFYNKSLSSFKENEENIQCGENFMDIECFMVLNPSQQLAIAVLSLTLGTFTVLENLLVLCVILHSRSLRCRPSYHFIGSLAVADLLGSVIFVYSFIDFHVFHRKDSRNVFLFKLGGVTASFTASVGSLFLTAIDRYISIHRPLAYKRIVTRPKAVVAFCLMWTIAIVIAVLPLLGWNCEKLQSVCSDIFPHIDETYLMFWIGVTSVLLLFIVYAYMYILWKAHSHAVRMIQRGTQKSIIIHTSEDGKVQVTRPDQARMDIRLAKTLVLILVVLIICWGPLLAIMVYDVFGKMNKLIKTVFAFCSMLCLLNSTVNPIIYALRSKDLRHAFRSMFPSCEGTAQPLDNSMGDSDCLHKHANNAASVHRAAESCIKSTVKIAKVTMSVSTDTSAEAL
T4 sequence (P34972 whole entry): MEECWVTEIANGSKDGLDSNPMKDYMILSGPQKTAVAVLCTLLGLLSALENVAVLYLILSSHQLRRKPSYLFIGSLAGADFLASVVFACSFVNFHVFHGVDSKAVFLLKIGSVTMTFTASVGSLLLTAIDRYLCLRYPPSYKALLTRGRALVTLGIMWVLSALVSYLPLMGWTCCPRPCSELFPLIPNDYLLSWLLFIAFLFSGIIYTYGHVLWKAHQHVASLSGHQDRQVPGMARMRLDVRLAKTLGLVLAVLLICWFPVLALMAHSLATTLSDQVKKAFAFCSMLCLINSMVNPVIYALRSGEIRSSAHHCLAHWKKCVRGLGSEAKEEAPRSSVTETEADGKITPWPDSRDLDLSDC
G-protein coupled receptor 55, sequence (Q9Y2T6 whole entry): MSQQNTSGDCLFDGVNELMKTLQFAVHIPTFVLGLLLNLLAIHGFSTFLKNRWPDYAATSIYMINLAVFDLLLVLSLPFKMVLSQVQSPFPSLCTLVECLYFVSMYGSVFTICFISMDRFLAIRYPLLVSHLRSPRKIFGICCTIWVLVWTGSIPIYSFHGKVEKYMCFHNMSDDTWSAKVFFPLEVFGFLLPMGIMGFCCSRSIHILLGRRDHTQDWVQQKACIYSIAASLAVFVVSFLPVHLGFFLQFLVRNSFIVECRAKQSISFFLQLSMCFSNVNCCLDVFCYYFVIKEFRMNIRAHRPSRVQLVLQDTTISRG
DNA dC->dU-editing enzyme APOBEC-3A, sequence (P31941 whole entry): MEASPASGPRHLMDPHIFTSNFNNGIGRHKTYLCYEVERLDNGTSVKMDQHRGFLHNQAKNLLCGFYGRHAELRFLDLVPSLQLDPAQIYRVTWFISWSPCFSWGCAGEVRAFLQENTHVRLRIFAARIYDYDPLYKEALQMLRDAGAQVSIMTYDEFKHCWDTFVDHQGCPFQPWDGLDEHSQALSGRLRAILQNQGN
DNA dC->dU-editing enzyme APOBEC-3G, sequence (Q9HC16 whole entry): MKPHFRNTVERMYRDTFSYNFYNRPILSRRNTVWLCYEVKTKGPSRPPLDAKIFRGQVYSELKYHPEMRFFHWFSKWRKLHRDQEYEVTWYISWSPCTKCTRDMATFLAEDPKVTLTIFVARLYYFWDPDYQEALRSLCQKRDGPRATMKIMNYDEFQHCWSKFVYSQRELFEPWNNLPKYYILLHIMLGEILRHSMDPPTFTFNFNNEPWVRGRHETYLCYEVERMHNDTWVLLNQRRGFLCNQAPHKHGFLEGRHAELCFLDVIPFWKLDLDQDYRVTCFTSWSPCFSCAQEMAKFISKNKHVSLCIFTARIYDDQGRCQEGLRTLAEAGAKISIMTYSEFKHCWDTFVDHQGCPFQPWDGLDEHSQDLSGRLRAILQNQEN

The term IC50 denotes the midpoint of a concentration-inhibition curve. On to `O=C(O)COc1ccc2c(c1)OCCO2`, for which the IC50 on Coagulation factor XII was > 50 µM (inactive).
Consider `CCc1ccc(OCC(=O)N/N=C\c2ccco2)c([N+](=O)[O-])c1`, for which the IC50 in [1] is 39.8 µM (active); in assay [2], 18.6 µM (active).
As usually defined, the EC50 is the concentration at which the effect is half-maximal. With `CCOc1ccccc1N1CCN(C(=O)c2cc(S(=O)(=O)N(C)C)ccc2N2CCCC2)CC1`, the EC50 (in [3]; in [4]; on Cannabinoid receptor 1 [5]; on Cannabinoid receptor 2 [8]) was > 32 µM (inactive) each time. The IC50 (in [6]; at Cannabinoid receptor 1 [7]; at Cannabinoid receptor 2 [9]) was > 32 µM (inactive) each time.
